{"source": "patent US20080090898A1", "about": "“Boosting immunity” (Mars, Incorporated, priority 2006, published 2008)", "key": {"CD8 T cells": {"test_system": "CD8 T cells", "assay": "Cytokine production of isolated CD8 T cells activated with anti CD3", "type": "cell-based, human", "method": "CD4+ and CD8+ cells were isolated by positive selection. Briefly, 10×10^7 PBMC cells in 90 μl were incubated with 10 μl of either anti-CD4+ or CD8+ magnetic reagent and incubated at 4° C. for a half hour. The cells were then separated by magnetic cell sorting using a Miltenyi Biotec system, were counted and diluted to a concentration of 2×10^6 cells/ml with BioWhittaker X Vivo. Autologous plasma from the subject was added to a concentration of 1% by volume. A 96 well plate was treated with antihuman-CD3 in PBS (BD Biosciences) at a concentration of 0.5 μg/ml for 4 hours. After the 4 hour incubation, the plate was washed 4 times with PBS. Purified CD4+ or CD8+ cells were added to each well along with various concentrations of the individual test compounds or controls. The cultures were then incubated at 37° C. for 1 day and supernatants were harvested and stored at −80° C. Cytokine profiles were determined using a BD Cytometric Bead Array Human Inflammation KIT (BD Biosciences, San Diego, Calif.). […] Wash buffer (300 μl) was added and samples immediately analyzed on the flow cytometer after vortexing. Known positive and negative samples and including a standard curve were included with each assay and all samples analyzed in triplicate. […] Cells were resuspended in 1.0 ml PBS/BSA and analyzed on the flow cytometer."}, "CD4 T cells": {"test_system": "CD4 T cells", "assay": "Cytokine production of isolated CD4 T cells activated with anti CD3", "type": "cell-based, human", "method": "CD4+ and CD8+ cells were isolated by positive selection. Briefly, 10×10^7 PBMC cells in 90 μl were incubated with 10 μl of either anti-CD4+ or CD8+ magnetic reagent and incubated at 4° C. for a half hour. The cells were then separated by magnetic cell sorting using a Miltenyi Biotec system, were counted and diluted to a concentration of 2×10^6 cells/ml with BioWhittaker X Vivo. Autologous plasma from the subject was added to a concentration of 1% by volume. A 96 well plate was treated with antihuman-CD3 in PBS (BD Biosciences) at a concentration of 0.5 μg/ml for 4 hours. After the 4 hour incubation, the plate was washed 4 times with PBS. Purified CD4+ or CD8+ cells were added to each well along with various concentrations of the individual test compounds or controls. The cultures were then incubated at 37° C. for 1 day and supernatants were harvested and stored at −80° C. Cytokine profiles were determined using a BD Cytometric Bead Array Human Inflammation KIT (BD Biosciences, San Diego, Calif.). Briefly, 50 μl of culture supernates and standards were added to 100 μl of capture beads and detection reagent. Tubes were incubated for 3 hours at room temperature, washed with 1 ml of wash buffer and centrifuged prior to collection of the supernate. Wash buffer (300 μl) was added and samples immediately analyzed on the flow cytometer after vortexing. Known positive and negative samples and including a standard curve were included with each assay and all samples analyzed in triplicate. In addition, cultured cells (1×10^6) were washed in PBS with 0.1% bovine serum albumin (PBS/BSA), resuspended in 100 μl PBS/BSA, and incubated with anti-human CD3, CD19, CD69 and CD83 antibody for 1 hour at 4° C. Cells were resuspended in 1.0 ml PBS/BSA and analyzed on the flow cytometer."}}}
{"smiles": "COc1cc([C@H]2Oc3cc(O)cc(O)c3C[C@H]2O)ccc1O", "note": "[3′-O-methyl-(−)-epicatechin]", "values": [{"measurement": "IFN-γ amounts over the media controls", "setting": "CD8 T cells", "value": "significantly higher amounts"}, {"measurement": "IFN-γ levels over media control and (−)-epicatechin treated cells", "setting": "CD4 T cells", "value": "significantly higher levels"}, {"measurement": "IL-10 levels over media control and (−)-epicatechin treated cells", "setting": "CD4 T cells", "value": "significantly higher levels"}, {"measurement": "TNF-α levels over media control and (−)-epicatechin treated cells", "setting": "CD4 T cells", "value": "significantly higher levels"}]}
